Assay results from PubChem BioAssay (NCI).
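48-hour exposure; five concentrations; linearly interpolated endpoints. Here, GI50 denotes the concentration required for 50% inhibition of growth. The concentration for full growth arrest is given as TGI.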

Key:
Test in all cases: growth of human tumour cells (NCI), 48 h
HCC-2998 colon = test system: HCC-2998 colon
M14 melanoma = test system: M14 melanoma
MCF7 breast = test system: MCF7 breast
COLO 205 colon = test system: COLO 205 colon
LOX IMVI melanoma = test system: LOX IMVI melanoma
MOLT-4 leukemia = test system: MOLT-4 leukemia
NCI-H460 lung = test system: NCI-H460 lung
RXF 393 renal = test system: RXF 393 renal
HOP-92 NSCLC = test system: HOP-92 NSCLC
OVCAR-3 ovarian = test system: OVCAR-3 ovarian

Structure (SMILES) | GI50 (HCC-2998 colon) [µM] | TGI (HCC-2998 colon) [µM] | GI50 (M14 melanoma) [µM] | TGI (M14 melanoma) [µM] | GI50 (MCF7 breast) [µM] | TGI (MCF7 breast) [µM] | GI50 (COLO 205 colon) [µM] | TGI (COLO 205 colon) [µM] | GI50 (LOX IMVI melanoma) [µM] | TGI (LOX IMVI melanoma) [µM] | GI50 (MOLT-4 leukemia) [µM] | TGI (MOLT-4 leukemia) [µM] | GI50 (NCI-H460 lung) [µM] | TGI (NCI-H460 lung) [µM] | GI50 (RXF 393 renal) [µM] | TGI (RXF 393 renal) [µM] | GI50 (HOP-92 NSCLC) [µM] | TGI (HOP-92 NSCLC) [µM] | GI50 (OVCAR-3 ovarian) [µM] | TGI (OVCAR-3 ovarian) [µM]
C=C(C)[C@@H]1C/C=C(/COC(C)=O)CC[C@H]2O[C@@]2(C)CC/C=C(\C)CC1 | > 100 | > 100 | > 100 | > 100 | 81 | > 100 | > 100 | > 100 | 20.3 | 46.5 | 28.4 | 82.3 | > 100 | > 100 | 33.6 | > 100 | > 100 | > 100 | > 100 | > 100
COc1ccc2c(c1)c1ccc3c(c1n2C)C(=O)C=CC3=O | – | 34.6 | – | 24.3 | – | 15.5 | – | 19.8 | – | 14.9 | – | 4.5 | – | 61.2 | – | 10.4 | – | 14.5 | – | 20.5
C=C[C@@H]1CCC/C=C/[C@@H]2C[C@H](O)C[C@H]2[C@H](O)/C=C/C(=O)O1 | 0.409 | 2.92 | 0.387 | > 28.9 | 0.388 | – | 0.224 | 0.441 | 0.269 | 0.815 | 1.16 | > 31.4 | 3.76 | > 100 | 0.247 | 0.68 | 0.702 | 5.95 | 0.427 | 4.18
O=C(Nc1ccc(Cl)cc1)c1cc(NCc2cc(O)ccc2O)ccc1O | 7.7 | 21.4 | 10.5 | 27.1 | 3.87 | 25.5 | 5.29 | 28.5 | 4.1 | 23.1 | 3.28 | 32.9 | 13.3 | 33.2 | 2.24 | 5.31 | – | – | 2.9 | 9.9
COc1ccc(-c2oc3ncnc(N)c3c2-c2ccc(NC(=O)Nc3cc(C(F)(F)F)ccc3F)cc2)cc1 | 2.08 | 5.81 | 0.806 | 3.23 | 0.675 | 3.21 | 0.558 | 1.45 | 0.658 | 3.21 | 1.64 | 8.98 | 0.85 | 2.97 | 0.473 | 1.15 | 0.808 | 5.4 | 1.3 | 4.32
COc1ccc(Cc2ccc3[nH]c(=O)cc(C)c3c2)cc1S(=O)(=O)O | – | – | – | > 100 | – | > 100 | – | > 100 | – | > 100 | – | > 100 | – | > 100 | – | > 100 | – | > 100 | – | > 100
Cc1cc(C)c([I+]c2c(C)cc(C)cc2C)c(C)c1 | 0.415 | 1.73 | 0.44 | 1.69 | 0.325 | 1.46 | 0.342 | 1.3 | – | – | – | – | 0.846 | 2.3 | 0.398 | 1.55 | 0.267 | 1.53 | 0.379 | 1.62
[Mn+3].[O-][Cl+3]([O-])([O-])O.[O-]c1ccccc1C=NCCN1CC1.[O-]c1ccccc1C=NCCN1CC1 | – | – | 26.9 | > 100 | 26.7 | > 100 | 28.9 | 97.3 | – | – | 5.57 | 25.4 | 27 | > 100 | 63 | > 100 | 94.8 | > 100 | 19.6 | 40.1
COc1ccc(NC(=O)c2ccc(C(F)(F)F)nc2Nc2ccc(Cl)cc2C)cc1Cl | – | – | 7.14 | 22.3 | 2.42 | 13.1 | 2.72 | 10.7 | 3.96 | 13.5 | 1.56 | 4.93 | 2.9 | 12.1 | 12.5 | 26.8 | 2.9 | 6.79 | 3.15 | 16.2
CCOc1ccc(Nc2ccnc3cc(Cl)ccc23)cc1 | > 100 | > 100 | – | – | 34.5 | > 100 | > 100 | > 100 | 41.9 | > 100 | > 100 | > 100 | 29.1 | > 100 | 72.3 | > 100 | 16.1 | > 100 | > 100 | > 100
COc1ccc2cc(C(=O)N3CCC([C@@H](C)C(=O)NCc4ccc5c(c4)OCO5)CC3)[nH]c2c1 | > 100 | > 100 | > 100 | > 100 | > 100 | > 100 | > 100 | > 100 | 50.1 | > 100 | > 100 | > 100 | > 100 | > 100 | – | – | 23.4 | > 100 | > 100 | > 100
CC(C)(C)c1cc[n+](C[n+]2ccc(C(C)(C)C)cc2)cc1 | – | > 100 | – | > 100 | – | > 100 | – | > 100 | – | – | – | > 100 | – | > 100 | – | > 100 | – | > 100 | – | > 100
COc1cc(/C=C2\C[C@H]3[C@@H]4CC=C5C[C@@H](O)CC[C@]5(C)[C@H]4CC[C@]3(C)[C@H]2O)ccc1OCCN1CCCCC1 | 0.85 | 1.64 | 0.424 | 0.954 | 1.31 | 20.5 | – | – | 0.589 | 1.34 | 3.07 | > 50 | 1.21 | 3.62 | 1.04 | 2.31 | 0.688 | 1.47 | 0.772 | 1.53
CN1CCN(c2ccncc2S(=O)(=O)N2CCN(C)CC2)CC1 | – | – | – | > 100 | – | > 100 | – | > 100 | – | > 100 | – | – | – | > 100 | – | > 100 | – | > 100 | – | > 100
